Experimental data from PubChem BioAssay (NCI).
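All cell lines were grown in 96-well plates and treated with compound for 48 hours. TGI is the concentration that stops growth completely.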

Columns and labels:
Assay in all cases: NCI tumour cell line growth inhibition, 48 h
CAKI-1 renal = test system: CAKI-1 renal
COLO 205 colon = test system: COLO 205 colon
HCC-2998 colon = test system: HCC-2998 colon
HOP-62 NSCLC = test system: HOP-62 NSCLC
IGROV1 ovarian = test system: IGROV1 ovarian
KM12 colon = test system: KM12 colon
LOX IMVI melanoma = test system: LOX IMVI melanoma
M14 melanoma = test system: M14 melanoma
MDA-MB-231 breast = test system: MDA-MB-231 breast
NCI-H226 lung = test system: NCI-H226 lung
NCI/ADR-RES ovarian = test system: NCI/ADR-RES ovarian
OVCAR-3 ovarian = test system: OVCAR-3 ovarian
SF-268 CNS = test system: SF-268 CNS
SK-MEL-5 melanoma = test system: SK-MEL-5 melanoma
SN12C renal = test system: SN12C renal
SNB-75 CNS = test system: SNB-75 CNS
SR leukemia = test system: SR leukemia
U251 CNS = test system: U251 CNS
UACC-257 melanoma = test system: UACC-257 melanoma
UACC-62 melanoma = test system: UACC-62 melanoma

Structure (SMILES) | TGI (CAKI-1 renal) [µM] | TGI (COLO 205 colon) [µM] | TGI (HCC-2998 colon) [µM] | TGI (HOP-62 NSCLC) [µM] | TGI (IGROV1 ovarian) [µM] | TGI (KM12 colon) [µM] | TGI (LOX IMVI melanoma) [µM] | TGI (M14 melanoma) [µM] | TGI (MDA-MB-231 breast) [µM] | TGI (NCI-H226 lung) [µM] | TGI (NCI/ADR-RES ovarian) [µM] | TGI (OVCAR-3 ovarian) [µM] | TGI (SF-268 CNS) [µM] | TGI (SK-MEL-5 melanoma) [µM] | TGI (SN12C renal) [µM] | TGI (SNB-75 CNS) [µM] | TGI (SR leukemia) [µM] | TGI (U251 CNS) [µM] | TGI (UACC-257 melanoma) [µM] | TGI (UACC-62 melanoma) [µM]
C=C1C[C@@H]2O[C@H]3[C@H]4[C@@H](C[C@@H](C)[C@@H](OC(C)=O)[C@H]42)[C@@H](C)CO[C@@]3(C)[C@H](OC(=O)CCCCCCC)C[C@H]1O | 28 | 29.9 | 30.9 | 32.9 | 36 | 31.5 | 26.6 | 35.2 | 27 | 26.1 | 30.7 | 37.2 | 31.1 | 28.8 | 31.1 | 32.6 | 36.3 | 30.6 | 32.6 | 31.4
C=CCC1(Sc2ccccn2)Sc2ccc3ccccc3c2-c2c(ccc3ccccc23)S1 | > 100 | > 100 | > 100 | > 100 | > 100 | > 100 | > 100 | > 100 | > 100 | > 100 | > 100 | > 100 | > 100 | > 100 | > 100 | > 100 | > 100 | > 100 | > 100 | > 100
O=C1CSC(c2ccccc2)N1c1ccc(-n2c(-c3ccccc3)nc3ccccc3c2=O)cc1 (stereo not given) | > 100 | > 100 | > 100 | > 100 | > 100 | > 100 | > 100 | > 100 | > 100 | > 100 | > 100 | > 100 | > 100 | > 100 | > 100 | > 100 | > 100 | > 100 | > 100 | > 100
CC(=O)NC(Cc1ccccc1)NC(=O)O (stereo not given) | > 100 | > 100 | > 100 | > 100 | > 100 | > 100 | > 100 | > 100 | > 100 | > 100 | > 100 | > 100 | > 100 | > 100 | > 100 | > 100 | > 100 | > 100 | > 100 | > 100
O=C1OC(C2Cc3ccc4c(c3C2=O)CCC4)c2ccccc21 (stereo not given) | > 100 | 45.8 | > 100 | > 100 | > 100 | > 100 | > 100 | > 100 | > 100 | 83.6 | > 100 | > 100 | > 100 | > 100 | > 100 | > 100 | > 100 | > 100 | > 100 | > 100
CCC1(CC)C(=O)N(C(=O)c2ccccc2)N(C(=O)c2ccc(Cl)cc2)C1=O | > 75 | > 75 | > 75 | > 75 | > 75 | > 75 | > 75 | > 75 | > 75 | > 75 | > 75 | > 75 | > 75 | > 75 | > 75 | > 75 | 53.6 | > 75 | > 75 | > 75
COc1ccc2c(=O)cc(-c3ccc(OC)c(OC)c3OC)oc2c1 | > 100 | > 100 | > 100 | > 100 | > 100 | > 85.7 | > 100 | > 100 | > 100 | > 100 | > 100 | > 87.6 | > 100 | > 100 | > 100 | > 92.6 | > 100 | > 100 | > 100 | > 100
